Assay results published in ChEMBL document CHEMBL1133669 (J Med Chem, 2000).

Experiments:
Carbonic anhydrase 4 = target: T1, Carbonic anhydrase 4 (Bos taurus, UniProt Q95323)
T1 sequence (Q95323 whole entry): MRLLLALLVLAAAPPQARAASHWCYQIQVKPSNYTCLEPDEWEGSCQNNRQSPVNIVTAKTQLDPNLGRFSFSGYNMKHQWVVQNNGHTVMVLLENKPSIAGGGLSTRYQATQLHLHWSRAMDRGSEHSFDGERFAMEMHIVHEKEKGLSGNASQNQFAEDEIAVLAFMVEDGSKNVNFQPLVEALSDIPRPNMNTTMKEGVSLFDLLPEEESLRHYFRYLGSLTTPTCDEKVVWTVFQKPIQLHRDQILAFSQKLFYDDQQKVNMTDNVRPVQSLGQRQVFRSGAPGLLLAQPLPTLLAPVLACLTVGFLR
Description: Inhibitory activity against bovine carbonic anhydrase IV (CA4), isolated from bovine lung microsomes

Rattus norvegicus [1] = assay: Renal excretion of bicarbonate after administration of 5 mg/kg in rats.; assay type: functional, Kidney
Carbonic anhydrase 1 = Carbonic anhydrase 1 (Homo sapiens, UniProt P00915)
Carbonic anhydrase 1, sequence (P00915 whole entry): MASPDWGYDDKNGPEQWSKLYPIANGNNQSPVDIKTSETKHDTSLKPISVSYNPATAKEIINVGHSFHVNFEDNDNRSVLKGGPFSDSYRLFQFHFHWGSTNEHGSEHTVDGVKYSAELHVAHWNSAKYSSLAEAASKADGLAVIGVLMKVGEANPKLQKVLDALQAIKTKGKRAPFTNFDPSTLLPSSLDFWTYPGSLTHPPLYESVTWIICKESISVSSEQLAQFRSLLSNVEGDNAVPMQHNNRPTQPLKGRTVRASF
Description: Inhibitory activity against human carbonic anhydrase I (CA1)

Rattus norvegicus [2] = assay: Renal excretion of bicarbonate after administration of 4 mg/kg in rats.; assay type: functional, Kidney
Rattus norvegicus [3] = species: Rattus norvegicus; settings: dose 10 mg/kg

Row | Ki (Carbonic anhydrase 4) | Ki (Carbonic anhydrase 1) | Compound | Bicarbonate level (Rattus norvegicus [1]) | Bicarbonate level (Rattus norvegicus [2]) | Bicarbonate level (Rattus norvegicus [3])
1 | 17 nM | 205 nM | Cc1cc(-c2ccccc2)cc(C)[n+]1CC(=O)Nc1nnc(S(N)(=O)=O)s1.[O-][Cl+3]([O-])([O-])[O-] | 38 |  | 
2 | 10 nM | 13 nM | CCc1cc(-c2ccccc2)cc(CC)[n+]1CC(=O)Nc1ccc(S(=O)(=O)/N=c2/sc(S(N)(=O)=O)nn2C)cc1.[O-][Cl+3]([O-])([O-])[O-] |  | 40 | 
3 |  |  | NS(=O)(=O)c1nnc(NS(=O)(=O)c2ccccc2)s1 [BENZOLAMIDE] |  |  | 115
4 | 35 nM | 300 nM | CC(C)c1cc(-c2ccccc2)cc(C(C)C)[n+]1CC(=O)/N=c1/sc(S(N)(=O)=O)nn1C.[O-][Cl+3]([O-])([O-])[O-] | 40 |  | 
5 | 25 nM | 300 nM | CCc1cc(-c2ccccc2)cc(CC)[n+]1CC(=O)Nc1nnc(S(N)(=O)=O)s1 |  |  | 
6 | 78 nM | 55 nM | Cc1cc(C)[n+](CC(=O)Nc2ccc(S(=O)(=O)Nc3ccc(S(N)(=O)=O)cc3)cc2)c(C)c1 |  |  | 
7 | 30 nM | 11 nM | CCc1cc(-c2ccccc2)cc(CC)[n+]1CC(=O)Nc1ccc2nc(S(N)(=O)=O)sc2c1 |  |  | 
8 | 46 nM | 720 nM | Cc1cc(-c2ccccc2)cc(C)[n+]1CC(=O)NCCc1ccc(S(N)(=O)=O)cc1 |  |  | 
9 | 360 nM | 34000 nM | CC(C)c1cc(-c2ccccc2)cc(C(C)C)[n+]1CC(=O)NNc1ccc(S(N)(=O)=O)cc1 |  |  | 
10 | 27 nM | 11 nM | CCc1cc(-c2ccccc2)cc(CC)[n+]1CC(=O)Oc1ccc2nc(S(N)(=O)=O)sc2c1 |  |  | 
11 | 84 nM | 1500 nM | CCc1cc(-c2ccccc2)cc(CC)[n+]1CC(=O)OCCc1ccc(S(N)(=O)=O)cc1 |  |  | 
12 | 62 nM | 47 nM | CC(C)c1cc(-c2ccccc2)cc(C(C)C)[n+]1CC(=O)Nc1nccc(Nc2ccc(S(N)(=O)=O)cc2)n1 |  |  | 
13 | 60 nM | 43 nM | CCc1cc(-c2ccccc2)cc(CC)[n+]1CC(=O)Nc1ccc(S(=O)(=O)Nc2cccc(S(N)(=O)=O)c2)cc1 |  |  | 
14 | 44 nM | 750 nM | Cc1cc(C)[n+](CC(=O)Nc2ccc(S(N)(=O)=O)cc2F)c(C)c1 |  |  | 
15 | 8 nM | 11 nM | Cc1cc(-c2ccccc2)cc(C)[n+]1CC(=O)Nc1ccc(S(=O)(=O)/N=c2/sc(S(N)(=O)=O)nn2C)cc1 |  |  | 
16 | 190 nM | 16000 nM | Cc1cc(C)[n+](CC(=O)Nc2ccc(S(N)(=O)=O)cc2)c(C)c1 |  |  | 
17 | 75 nM | 1350 nM | Cc1cc(-c2ccccc2)cc(C)[n+]1CC(=O)OCc1ccc(S(N)(=O)=O)cc1 |  |  | 
18 | 86 nM | 61 nM | Cc1cc(C)[n+](CC(=O)Nc2ccc(S(=O)(=O)Nc3cccc(S(N)(=O)=O)c3)cc2)c(C)c1 |  |  | 

Row | Ki (Carbonic anhydrase 4) | Ki (Carbonic anhydrase 1) | Compound | Bicarbonate level (Rattus norvegicus [1]) | Bicarbonate level (Rattus norvegicus [2]) | Bicarbonate level (Rattus norvegicus [3])
19 | 9 nM | 12 nM | CCc1cc(-c2ccccc2)cc(CC)[n+]1CC(=O)Nc1ccc(S(=O)(=O)Nc2nnc(S(N)(=O)=O)s2)cc1 |  |  | 
20 | 46 nM | 610 nM | CCc1cc(-c2ccccc2)cc(CC)[n+]1CC(=O)Nc1ccc(S(N)(=O)=O)cc1Cl |  |  | 
21 | 50 nM | 1250 nM | Cc1cc(-c2ccccc2)cc(C)[n+]1CC(=O)NCc1ccc(S(N)(=O)=O)cc1 |  |  | 
22 | 72 nM | 53 nM | CC(C)c1cc(-c2ccccc2)cc(C(C)C)[n+]1CC(=O)Nc1ccc(S(=O)(=O)Nc2cccc(S(N)(=O)=O)c2)cc1 |  |  | 
23 | 115 nM | 1650 nM | CC(C)c1cc(-c2ccccc2)cc(C(C)C)[n+]1CC(=O)OCCc1ccc(S(N)(=O)=O)cc1 |  |  | 
24 | 10 nM | 15 nM | CC(C)c1cc(-c2ccccc2)cc(C(C)C)[n+]1CC(=O)Nc1ccc(S(=O)(=O)/N=c2/sc(S(N)(=O)=O)nn2C)cc1 |  |  | 
25 | 64 nM | 620 nM | CCc1cc(-c2ccccc2)cc(CC)[n+]1CC(=O)Nc1ccc(S(N)(=O)=O)cc1I |  |  | 
26 | 58 nM | 45 nM | CCc1cc(-c2ccccc2)cc(CC)[n+]1CC(=O)Nc1nccc(Nc2ccc(S(N)(=O)=O)cc2)n1 |  |  | 
27 | 9 nM | 10 nM | Cc1cc(-c2ccccc2)cc(C)[n+]1CC(=O)Nc1ccc(S(=O)(=O)Nc2nnc(S(N)(=O)=O)s2)cc1 |  |  | 
28 | 310 nM | 26000 nM | Cc1cc(-c2ccccc2)cc(C)[n+]1CC(=O)NNc1ccc(S(N)(=O)=O)cc1 |  |  | 
29 | 63 nM | 46 nM | CCc1cc(-c2ccccc2)cc(CC)[n+]1CC(=O)Nc1ccc(S(=O)(=O)Nc2ccc(S(N)(=O)=O)cc2)cc1 |  |  | 
30 | 16 nM | 9 nM | Cc1cc(-c2ccccc2)cc(C)[n+]1CC(=O)OCCOc1ccc2nc(S(N)(=O)=O)sc2c1 |  |  | 
31 | 25 nM | 300 nM | CCc1cc(-c2ccccc2)cc(CC)[n+]1CC(=O)/N=c1/sc(S(N)(=O)=O)nn1C |  |  | 
32 | 120 nM | 1770 nM | CC(C)c1cc(-c2ccccc2)cc(C(C)C)[n+]1CC(=O)OCc1ccc(S(N)(=O)=O)cc1 |  |  | 
33 | 140 nM | 1800 nM | Cc1cc(C)[n+](CC(=O)OCc2ccc(S(N)(=O)=O)cc2)c(C)c1 |  |  | 
34 | 18 nM | 43 nM | Cc1cc(C)[n+](CC(=O)NCCC(=O)Nc2nnc(S(N)(=O)=O)s2)c(C)c1 |  |  | 
35 | 130 nM | 1700 nM | Cc1cc(C)[n+](CC(=O)OCCc2ccc(S(N)(=O)=O)cc2)c(C)c1 |  |  | 
